Key:
Type in all cases: in vivo, C57BL/6JNarl mice (male)
[1] = tested on: MAFLD-mode mice (diet with 60% kcal fat+30% v/v fructose corn syrup); experiment: Animal test: body, liver, spleen and white adipose tissue weights of MAFLD-mode mice; conditions: for Epididymal white adipose tissue / Final body weight / Liver weight / Mesenteric white adipose tissue / Perirenal white adipose tissue / Spleen weight: eight weeks, high-fat/fructose diet; for Initial body weight: before the eight-week test
Experimental: (§1) 100 five-week-old C57BL/6JNarl mice (male) were raised in an environment whose temperature was 22-25° C., whose relative humidity was 45%-60%, and which adopted a 12-hour light/12-hour darkness cycle. The mice were fed with common feed and water for three weeks and then randomly divided into 10 groups, whose subsequent treatments are as follows:
Group 1: This was the blank group. The mice in this group were fed with common animal feed and distilled water.
Group 2: This was the control group. The mice in this group were fed with a diet with 60% kcal fat+30% v/v fructose corn syrup (and a 0.5% carboxymethyl cellulose (CMC) solution) and thereby induced to develop into MAFLD-mode mice.
Group 3: This was the low-dosage YF dipeptide group. The mice in this group were fed with the Tyr-Phe dipeptide at a dose of 10 mg/kg/day, in addition to a diet with 60% kcal fat+30% v/v fructose corn syrup.
Group 4: This was the high-dosage YF dipeptide group. The mice in this group were fed with the Tyr-Phe dipeptide at a dose of 50 mg/kg/day, in addition to a diet with 60% kcal fat+30% v/v fructose corn syrup.
Group 5: This was the low-dosage FY dipeptide group. The mice in this group were fed with the Phe-Tyr dipeptide at a dose of 10 mg/kg/day, in addition to a diet with 60% kcal fat+30% v/v fructose corn syrup.
Group 6: This was the high-dosage FY dipeptide group. The mice in this group were fed with the Phe-Tyr dipeptide at a dose of 50 mg/kg/day, in addition to a diet with 60% kcal fat+30% v/v fructose corn syrup.
Group 7: This was the low-dosage EWYF tetrapeptide group. The mice in this group were fed with the Glu-Trp-Tyr-Phe tetrapeptide (which has the sequence of SEQ ID No.: 1) at a dose of 10 mg/kg/day, in addition to a diet with 60% kcal fat+30% v/v fructose corn syrup.
Group 8: This was the high-dosage EWYF tetrapeptide group. The mice in this group were fed with the Glu-Trp-Tyr-Phe tetrapeptide (which has the sequence of SEQ ID No.: 1) at a dose of 50 mg/kg/day, in addition to a diet with 60% kcal fat+30% v/v fructose corn syrup.
Group 9: This was the low-dosage EWFY tetrapeptide group. The mice in this group were fed with the Glu-Trp-Phe-Tyr tetrapeptide (which has the sequence of SEQ ID No.: 2) at a dose of 10 mg/kg/day, in addition to a diet with 60% kcal fat+30% v/v fructose corn syrup.
Group 10: This was the high-dosage EWFY tetrapeptide group. The mice in this group were fed with the Glu-Trp-Phe-Tyr tetrapeptide (which has the sequence of SEQ ID No.: 2) at a dose of 50 mg/kg/day, in addition to a diet with 60% kcal fat+30% v/v fructose corn syrup.
(§2) Each of the four peptides was mixed with 0.5% Carboxymethyl Cellulose (CMC) to form a peptide solution, before the peptide solution was fed into the stomach of each mouse in the corresponding group with a syringe.
(§3) The test lasted eight weeks. The body weights of, and the amounts of food consumed by, the mice in each group were measured and recorded each week. The mice were sacrificed at the end of the test, and the livers, spleens, and white adipose tissue of the mice in each group were weighed.

[2] = tested on: MAFLD-mode mice (diet with 60% kcal fat+30% v/v fructose corn syrup); experiment: Analysis of the hepatic lipid content (enzymatic colorimetric method) of MAFLD-mode mice; conditions: eight weeks, liver; for hVLDL (hepatic very-low-density lipoprotein): calculated as 1/5 of the hepatic triglyceride level;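 for hTC (hepatic total cholesterol): reported in mg/dL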;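 for hTG (hepatic triglyceride): reported in mg/dL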;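 for hVLDL (hepatic very-low-density lipoprotein): reported in mg/dL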
Experimental: as §1, §2, §3
After the test of example 1, the mice in each group were sacrificed, and the livers of the mice were collected in order to measure the hepatic lipid content of the liver of each mouse by an enzymatic colorimetric method. The items measured were hepatic triglyceride (hTG), hepatic total cholesterol (hTC), hepatic free fatty acid (hFFA), and hepatic very-low-density lipoprotein (hVLDL), wherein the hVLDL level was calculated as ⅕ of the hepatic triglyceride level.

[3] = tested on: MAFLD-mode mice (diet with 60% kcal fat+30% v/v fructose corn syrup); experiment: Biochemical analysis of blood (sALT and serum lipid indices) of MAFLD-mode mice; conditions: eight weeks
Experimental: as §1, §2, §3
After the test of example 1, blood samples were taken from the mice in each group, and the serum alanine transaminase (sALT), serum triglyceride (sTG), serum total cholesterol (sTC), serum free fatty acid (sFFA), and serum very-low-density lipoprotein (sVLDL) levels of the blood samples were measured.

[4] = baseline of the 10 mg/kg/day group
[5] = baseline of the 50 mg/kg/day group

Row | Substance | Epididymal white adipose tissue ([1]; 10 mg/kg/day into the stomach) [g] | Final body weight ([1]; 10 mg/kg/day into the stomach) [g] | Liver weight ([1]; 10 mg/kg/day into the stomach) [g] | Mesenteric white adipose tissue ([1]; 10 mg/kg/day into the stomach) [g] | Perirenal white adipose tissue ([1]; 10 mg/kg/day into the stomach) [g] | Spleen weight ([1]; 10 mg/kg/day into the stomach) [mg] | Epididymal white adipose tissue ([1]; 50 mg/kg/day into the stomach) [g] | Final body weight ([1]; 50 mg/kg/day into the stomach) [g] | Liver weight ([1]; 50 mg/kg/day into the stomach) [g] | Mesenteric white adipose tissue ([1]; 50 mg/kg/day into the stomach) [g] | Perirenal white adipose tissue ([1]; 50 mg/kg/day into the stomach) [g] | Spleen weight ([1]; 50 mg/kg/day into the stomach) [mg] | Initial body weight [1, 4] [g] | Initial body weight [1, 5] [g] | hFFA (hepatic free fatty acid) ([2]; 10 mg/kg/day) [mEq/L] | hTC (hepatic total cholesterol) ([2]; 10 mg/kg/day) [mg/dL] | hTG (hepatic triglyceride) ([2]; 10 mg/kg/day) [mg/dL] | hVLDL (hepatic very-low-density lipoprotein) ([2]; 10 mg/kg/day) [mg/dL] | hFFA (hepatic free fatty acid) ([2]; 50 mg/kg/day) [mEq/L] | hTC (hepatic total cholesterol) ([2]; 50 mg/kg/day) [mg/dL] | other results
1 | Glu-Trp-Phe-Tyr (EWFY) [groups 9 (10 mg/kg/day) and 10 (50 mg/kg/day)] | 1.294 ± 0.330 | 30.04 ± 1.70 | 1.028 ± 0.068 | 0.276 ± 0.081 | 0.513 ± 0.132 | 56.6 ± 7.0 | 0.983 ± 0.231 | 28.59 ± 1.82 | 0.985 ± 0.072 | 0.234 ± 0.056 | 0.445 ± 0.077 | 53.5 ± 5.7 | 22.89 ± 1.08 | 22.78 ± 1.79 | 111.78 ± 27.75 | 11.04 ± 1.11 | 41.45 ± 9.45 | 8.29 ± 1.89 | 74.05 ± 19.5 | 5.96 ± 0.91 | hTG (hepatic triglyceride) ([2]; 50 mg/kg/day): 22.47 ± 4.84 mg/dL; hVLDL (hepatic very-low-density lipoprotein) ([2]; 50 mg/kg/day): 4.49 ± 0.97 mg/dL; sALT (serum alanine transaminase) ([3]; 10 mg/kg/day): 45.6 ± 13.91 IU/L; sFFA (serum free fatty acid) ([3]; 10 mg/kg/day): 0.849 ± 0.235 mEq/L; sTC (serum total cholesterol) ([3]; 10 mg/kg/day): 147.45 ± 25.19 mg/dL; sTG (serum triglyceride) ([3]; 10 mg/kg/day): 100.53 ± 20.83 mg/dL; sVLDL (serum very-low-density lipoprotein) ([3]; 10 mg/kg/day): 20.11 ± 4.17 mg/dL; sALT (serum alanine transaminase) ([3]; 50 mg/kg/day): 34.2 ± 16.20 IU/L; sFFA (serum free fatty acid) ([3]; 50 mg/kg/day): 0.757 ± 0.303 mEq/L; sTC (serum total cholesterol) ([3]; 50 mg/kg/day): 135.78 ± 23.48 mg/dL; sTG (serum triglyceride) ([3]; 50 mg/kg/day): 91.47 ± 18.50 mg/dL; sVLDL (serum very-low-density lipoprotein) ([3]; 50 mg/kg/day): 18.29 ± 3.70 mg/dL
2 | Glu-Trp-Tyr-Phe (EWYF) [groups 7 (10 mg/kg/day) and 8 (50 mg/kg/day)] | 1.146 ± 0.306 | 29.76 ± 1.77 | 0.988 ± 0.084 | 0.263 ± 0.070 | 0.499 ± 0.060 | 55.5 ± 6.4 | 0.909 ± 0.269 | 27.42 ± 1.97 | 0.973 ± 0.089 | 0.199 ± 0.061 | 0.418 ± 0.104 | 51.2 ± 5.9 | 22.84 ± 1.71 | 22.82 ± 1.13 | 108.17 ± 26.92 | 10.74 ± 1.38 | 39.45 ± 9.93 | 7.89 ± 1.99 | 87.71 ± 21.90 | 8.19 ± 1.07 | hTG (hepatic triglyceride) ([2]; 50 mg/kg/day): 31.49 ± 8.04 mg/dL; hVLDL (hepatic very-low-density lipoprotein) ([2]; 50 mg/kg/day): 6.29 ± 1.61 mg/dL; sALT (serum alanine transaminase) ([3]; 10 mg/kg/day): 39.3 ± 20.17 IU/L; sFFA (serum free fatty acid) ([3]; 10 mg/kg/day): 0.782 ± 0.309 mEq/L; sTC (serum total cholesterol) ([3]; 10 mg/kg/day): 139.71 ± 20.52 mg/dL; sTG (serum triglyceride) ([3]; 10 mg/kg/day): 96.18 ± 21.42 mg/dL; sVLDL (serum very-low-density lipoprotein) ([3]; 10 mg/kg/day): 19.24 ± 4.28 mg/dL; sALT (serum alanine transaminase) ([3]; 50 mg/kg/day): 27.9 ± 14.00 IU/L; sFFA (serum free fatty acid) ([3]; 50 mg/kg/day): 0.692 ± 0.24 mEq/L; sTC (serum total cholesterol) ([3]; 50 mg/kg/day): 126.96 ± 24.59 mg/dL; sTG (serum triglyceride) ([3]; 50 mg/kg/day): 81.84 ± 20.39 mg/dL; sVLDL (serum very-low-density lipoprotein) ([3]; 50 mg/kg/day): 16.37 ± 4.08 mg/dL
3 | Phe-Tyr [FY] | 1.328 ± 0.234 | 30.10 ± 1.29 | 1.037 ± 0.089 | 0.289 ± 0.055 | 0.544 ± 0.077 | 58.8 ± 7.2 | 1.220 ± 0.301 | 28.93 ± 1.27 | 0.991 ± 0.078 | 0.257 ± 0.067 | 0.487 ± 0.098 | 54.2 ± 5.6 | 22.88 ± 1.09 | 22.75 ± 1.10 | 119.27 ± 29.07 | 12.06 ± 1.19 | 44.58 ± 6.77 | 8.92 ± 1.35 | 112.49 ± 25.02 | 10.97 ± 1.2 | hTG (hepatic triglyceride) ([2]; 50 mg/kg/day): 41.49 ± 8.52 mg/dL; hVLDL (hepatic very-low-density lipoprotein) ([2]; 50 mg/kg/day): 8.30 ± 1.70 mg/dL; sALT (serum alanine transaminase) ([3]; 10 mg/kg/day): 53.1 ± 21.40 IU/L; sFFA (serum free fatty acid) ([3]; 10 mg/kg/day): 1.03 ± 0.338 mEq/L; sTC (serum total cholesterol) ([3]; 10 mg/kg/day): 158.43 ± 20.37 mg/dL; sTG (serum triglyceride) ([3]; 10 mg/kg/day): 106.80 ± 23.45 mg/dL; sVLDL (serum very-low-density lipoprotein) ([3]; 10 mg/kg/day): 21.36 ± 4.69 mg/dL; sALT (serum alanine transaminase) ([3]; 50 mg/kg/day): 42.6 ± 17.60 IU/L; sFFA (serum free fatty acid) ([3]; 50 mg/kg/day): 0.905 ± 0.179 mEq/L; sTC (serum total cholesterol) ([3]; 50 mg/kg/day): 146.76 ± 19.73 mg/dL; sTG (serum triglyceride) ([3]; 50 mg/kg/day): 97.80 ± 22.91 mg/dL; sVLDL (serum very-low-density lipoprotein) ([3]; 50 mg/kg/day): 19.56 ± 4.58 mg/dL
4 | Tyr-Phe [YF] | 1.452 ± 0.433 | 30.22 ± 2.07 | 0.996 ± 0.094 | 0.298 ± 0.088 | 0.526 ± 0.069 | 59.9 ± 8.2 | 1.182 ± 0.265 | 28.98 ± 1.76 | 0.982 ± 0.085 | 0.251 ± 0.056 | 0.481 ± 0.080 | 53.8 ± 6.4 | 22.82 ± 1.01 | 22.84 ± 1.25 | 110.93 ± 21.96 | 11.22 ± 1.23 | 41.81 ± 8.32 | 8.36 ± 1.66 | 98.90 ± 24.07 | 9.76 ± 1.45 | hTG (hepatic triglyceride) ([2]; 50 mg/kg/day): 36.95 ± 8.33 mg/dL; hVLDL (hepatic very-low-density lipoprotein) ([2]; 50 mg/kg/day): 7.39 ± 1.67 mg/dL; sALT (serum alanine transaminase) ([3]; 10 mg/kg/day): 44.4 ± 15.09 IU/L; sFFA (serum free fatty acid) ([3]; 10 mg/kg/day): 0.932 ± 0.336 mEq/L; sTC (serum total cholesterol) ([3]; 10 mg/kg/day): 155.01 ± 25.12 mg/dL; sTG (serum triglyceride) ([3]; 10 mg/kg/day): 103.38 ± 22.62 mg/dL; sVLDL (serum very-low-density lipoprotein) ([3]; 10 mg/kg/day): 20.68 ± 4.52 mg/dL; sALT (serum alanine transaminase) ([3]; 50 mg/kg/day): 36.3 ± 15.97 IU/L; sFFA (serum free fatty acid) ([3]; 50 mg/kg/day): 0.813 ± 0.243 mEq/L; sTC (serum total cholesterol) ([3]; 50 mg/kg/day): 140.70 ± 22.66 mg/dL; sTG (serum triglyceride) ([3]; 50 mg/kg/day): 95.19 ± 24.70 mg/dL; sVLDL (serum very-low-density lipoprotein) ([3]; 50 mg/kg/day): 19.04 ± 4.94 mg/dL

From patent US20240409581A1, “SMALL-MOLECULE PEPTIDE AND USE THEREOF AGAINST METABOLIC-[…] LIVER DISEASE AND FOR REDUCING BODY WEIGHT” (Tunghai University, priority 2023, published 2024)
